Values quoted from earlier work in patent US8012963B2, “3,4-dihydro-2H-benzo[1,4]oxazine and thiazine derivatives as CETP inhibitors” (Janssen Pharmaceutica N.V., priority 2006, dated 2011).

How the values were obtained:
rabbits [1] = settings: 30 mg/kg; cited from earlier work
rabbits [2] = settings: rabbits with severe hypercholesterolemia; cited from earlier work
[3] = clinical studies; cited from earlier work

In the case of CCC(CC)CC1(C(=O)Nc2ccccc2SC(=O)C(C)C)CCCCC1 [JTT-705], the CETP activity (rabbits [1]) is given as “inhibited CETP activity”, the “change of HDL-C” value (rabbits [1]) is given as “+90%” and the “change of lesion size” value (rabbits [1]) is given as −70%. For the same molecule, the “change of non-HDL-C cholesterol” value (rabbits [1]) was −50%, the plasma triglycerides (rabbits [2]) was “significant elevations of plasma triglycerides” and the “prevention of lesion development” value (rabbits [2]) was “not efficacious in preventing lesion development”. For the same molecule, the HDL-C [3] was “raise HDL-C”, the LDL-C [3] was “modestly lower LDL-C” and the triglyceride levels [3] was “not alter triglyceride levels”.
